From patent US10000488B2, “Heterocyclic compound” (TAKEDA PHARMACEUTICAL COMPANY LIMITED, priority 2014, dated 2018)

Tests used:
RORγt [1] = molecular target: T1, RORγt (Homo sapiens, UniProt P51449); assay: Jurkat reporter test (human IL-17 ROR response element luciferase reporter, RORγt vector); format: cell-based; settings: test compound 3 μM; Jurkat cells; read-out: luminescence level inhibitory rate (%) at test compound 3 μM
T1 sequence (P51449 1-497 isoform P51449-2): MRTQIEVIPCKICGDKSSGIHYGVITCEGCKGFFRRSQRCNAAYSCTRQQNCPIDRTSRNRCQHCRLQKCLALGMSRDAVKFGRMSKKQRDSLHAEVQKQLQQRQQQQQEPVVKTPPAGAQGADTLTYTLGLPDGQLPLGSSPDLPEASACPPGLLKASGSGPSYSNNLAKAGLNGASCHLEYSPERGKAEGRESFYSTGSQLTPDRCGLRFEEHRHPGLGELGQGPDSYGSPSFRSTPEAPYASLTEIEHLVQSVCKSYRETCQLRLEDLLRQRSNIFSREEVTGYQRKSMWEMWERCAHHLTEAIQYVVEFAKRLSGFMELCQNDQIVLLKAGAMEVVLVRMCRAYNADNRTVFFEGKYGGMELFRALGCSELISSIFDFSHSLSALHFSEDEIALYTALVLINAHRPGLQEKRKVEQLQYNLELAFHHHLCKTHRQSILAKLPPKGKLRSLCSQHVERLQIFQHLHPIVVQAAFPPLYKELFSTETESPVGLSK
Outline: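 Jurkat cells were electroporated (1350 V, 10 ms, 3 pulses) with the reporter constructs and plated in RPMI with 10% lipid-reduced FCS, 10 mM HEPES pH 7.5 and 5 μM lovastatin. After overnight culture with compound, luciferase activity was measured by luminescence following a 10 min room-temperature incubation with Bright-Glo.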

RORγt [2] = molecular target: T1, RORγt; assay: RORγt binding test using fluorescent-labeled synthetic ligand (TR-FRET); settings: test compound 1 μM; read-out: binding inhibitory rate (%) of fluorescent-labeled synthetic ligand to RORγt at test compound 1 μM
Outline: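 Compound displacement of a fluorescent-labeled synthetic ligand from His-tagged RORγt was read by TR-FRET with a terbium anti-His antibody. Buffer was 20 mM Tris-HCl pH 7.5, 100 mM NaCl, 1 mM DTT and 0.1% BSA, with stocks of 240 nM protein, 12 μM ligand and 8 nM antibody (pre-mix, not final). Incubations were 20 min plus 20 min at room temperature, with excitation at 320 nm, emission at 520 nm and a 100 μs delay.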

RORγt [3] = molecular target: T1, RORγt; assay: Cofactor recruitment test (Alpha Screen, biotinylated SRC-1 peptide); format: biochemical; settings: read-out: signal value inhibitory rate (%) at test compound 1 μM
Experimental: Cofactor Recruitment Test
Cofactor recruitment test was performed by Alpha Screen (Histidine Detection Kit, PerkinElmer) method. First, a test compound was diluted with an assay buffer (50 mM Tris-HCl (pH 7.5), 50 mM KCl, 1 mM DTT, 0.1% BSA) and added to a 384 well plate by 5 μL. […] The mixture was stood in a dark place for 1 hr, and the signal value was measured by Envision (PerkinElmer).

Compound	inhibition at 3 µM (RORγt [1])	inhibition at 1 µM (RORγt [2])	inhibition at 1 µM (RORγt [3])
CC(C)n1c(=O)n(CC2CC2)c(=O)c2cc(NC(=O)N3CCC[C@@H](NC(=O)c4ccc5c(c4)CCN(C(=O)OC(C)(C)C)C5)C3)c(F)cc21 [Example 340, tert-butyl 6-(((3R)-1-((3-(cyclopropylmethyl)-7-fluoro-1-isopropyl-2,4-dioxo-1,2,3,4-tetrahydroquinazolin-6-yl)carbamoyl)piperidin-3-yl)carbamoyl)-3,4-dihydroisoquinoline-2 (1H)-carboxylate]	107%	98%	92%
COC(=O)N1Cc2ccc(C(=O)N[C@@H]3CCCN(C(=O)Nc4cc5c(=O)n(CC6CC6)c(=O)n(C(C)C)c5cc4F)C3)cc2C1 [Example 343, methyl 5-(((3R)-1-((3-(cyclopropylmethyl)-7-fluoro-1-isopropyl-2,4-dioxo-1,2,3,4-tetrahydroquinazolin-6-yl)carbamoyl)piperidin-3-yl)carbamoyl)-1,3-dihydro-2H-isoindole-2-carboxylate]	108%	101%	107%
CC(C)n1c(=O)n(CC2CC2)c(=O)c2cc(NC(=O)N3CCO[C@@H](C(=O)Nc4cc(Cl)c(C#N)cc4F)C3)c(F)cc21 [Example 347, (2R)—N^2-(5-chloro-4-cyano-2-fluorophenyl)-N^4-(3-(cyclopropylmethyl)-7-fluoro-1-isopropyl-2,4-dioxo-1,2,3,4-tetrahydroquinazolin-6-yl)morpholine-2,4-dicarboxamide]	107%	102%	107%
CC(C)n1c(=O)n(CC2CC(F)(F)C2)c(=O)c2cc(NC(=O)N3CCO[C@@H](C(=O)Nc4ccc(C#N)c(Cl)c4)C3)c(F)cc21 [Example 350, (2R)—N^2-(3-chloro-4-cyanophenyl)-N^4-(3-((3,3-difluorocyclobutyl)methyl)-7-fluoro-1-isopropyl-2,4-dioxo-1,2,3,4-tetrahydroquinazolin-6-yl)morpholine-2,4-dicarboxamide]	107%	102%	108%
CC(C)n1c(=O)n(CC2CC(F)(F)C2)c(=O)c2cc(NC(=O)N3CCO[C@@H](C(=O)Nc4cc(Cl)c(C#N)cc4F)C3)c(F)cc21 [Example 351, (2R)—N^2-(5-chloro-4-cyano-2-fluorophenyl)-N^4-(3-((3,3-difluorocyclobutyl)methyl)-7-fluoro-1-isopropyl-2,4-dioxo-1,2,3,4-tetrahydroquinazolin-6-yl)morpholine-2,4-dicarboxamide]	106%	101%	108%
CC(C)n1c(=O)n(C[C@@H]2CCCO2)c(=O)c2cc(NC(=O)N3CCO[C@@H](C(=O)Nc4ccc(C#N)c(Cl)c4)C3)c(F)cc21 [Example 357, (2R)—N^2-(3-chloro-4-cyanophenyl)-N^4-(7-fluoro-1-isopropyl-2,4-dioxo-3-((2S)-tetrahydrofuran-2-ylmethyl)-1,2,3,4-tetrahydroquinazolin-6-yl)morpholine-2,4-dicarboxamide]	106%	101%	107%
CC(C)n1c(=O)n(C[C@@H]2CCCO2)c(=O)c2cc(NC(=O)N3CCO[C@@H](C(=O)Nc4cc(Cl)c(C#N)cc4F)C3)c(F)cc21 [Example 358, (2R)—N^2-(5-chloro-4-cyano-2-fluorophenyl)-N^4-(7-fluoro-1-isopropyl-2,4-dioxo-3-((2S)-tetrahydrofuran-2-ylmethyl)-1,2,3,4-tetrahydroquinazolin-6-yl)morpholine-2,4-dicarboxamide]	106%	101%	107%
CC(C)n1c(=O)n(CC2CC(F)(F)C2)c(=O)c2cc(NC(=O)N3CCC[C@@H](n4cnc5cc(C#N)ccc5c4=O)C3)c(F)cc21 [Example 363, (3R)-3-(7-cyano-4-oxoquinazoline-3(4H)-yl)-N-(3-((3,3-difluorocyclobutyl)methyl)-7-fluoro-1-isopropyl-2,4-dioxo-1,2,3,4-tetrahydroquinazolin-6-yl)piperidine-1-carboxamide]	107%	102%	106%
